# US11084829B2, “Ubiquitin-specific-processing protease 7 (USP7) modulators and uses thereof” (RAPT THERAPEUTICS, INC., priority 2018, dated 2021)
# Molecular target: USP7 (Homo sapiens, UniProt Q93009)
# Experiment: USP7 inhibitory potency (IC50)
# Type: biochemical
# Protocol: Activity for compounds described herein is provided in Table 2, wherein potency levels are provided as follows: (Potency: USP7 IC50: A<0.01 μM; B=0.01-0.1 μM; C=>0.1 μM.
# USP7, sequence (Q93009 whole entry): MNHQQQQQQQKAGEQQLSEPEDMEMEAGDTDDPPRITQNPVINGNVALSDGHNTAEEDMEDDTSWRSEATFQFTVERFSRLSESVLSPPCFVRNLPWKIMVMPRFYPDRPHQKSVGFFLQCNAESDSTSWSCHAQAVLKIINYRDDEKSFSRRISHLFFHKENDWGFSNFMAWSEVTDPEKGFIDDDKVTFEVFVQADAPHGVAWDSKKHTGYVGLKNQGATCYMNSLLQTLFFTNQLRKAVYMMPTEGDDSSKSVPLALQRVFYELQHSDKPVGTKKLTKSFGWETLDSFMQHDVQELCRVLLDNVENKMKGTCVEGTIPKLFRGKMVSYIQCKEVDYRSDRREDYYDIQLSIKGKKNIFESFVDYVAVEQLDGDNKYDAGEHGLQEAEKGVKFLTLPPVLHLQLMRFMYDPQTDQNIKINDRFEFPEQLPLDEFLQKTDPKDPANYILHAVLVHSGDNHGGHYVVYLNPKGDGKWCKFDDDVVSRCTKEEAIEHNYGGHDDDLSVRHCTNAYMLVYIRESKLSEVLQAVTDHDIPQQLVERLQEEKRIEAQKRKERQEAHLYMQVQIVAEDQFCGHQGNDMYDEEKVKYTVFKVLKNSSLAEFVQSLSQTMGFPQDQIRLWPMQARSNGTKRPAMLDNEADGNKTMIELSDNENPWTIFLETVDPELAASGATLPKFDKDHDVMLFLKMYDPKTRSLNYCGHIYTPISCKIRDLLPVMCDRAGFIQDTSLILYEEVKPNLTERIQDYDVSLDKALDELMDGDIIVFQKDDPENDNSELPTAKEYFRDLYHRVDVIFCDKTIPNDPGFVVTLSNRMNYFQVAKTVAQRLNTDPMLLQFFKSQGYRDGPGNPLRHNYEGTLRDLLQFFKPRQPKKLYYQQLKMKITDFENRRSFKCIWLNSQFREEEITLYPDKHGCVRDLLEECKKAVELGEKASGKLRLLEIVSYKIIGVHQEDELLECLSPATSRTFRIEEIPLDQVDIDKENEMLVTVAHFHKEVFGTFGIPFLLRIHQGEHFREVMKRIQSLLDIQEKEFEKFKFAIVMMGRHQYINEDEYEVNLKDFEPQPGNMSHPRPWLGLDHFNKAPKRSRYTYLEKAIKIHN
row,SMILES,IC50 [nM]
1,"Cc1cc(Cl)cc(-c2ncnc3cc(CN4C(=O)COCC4=O)sc23)c1CC1CNCCO1 (stereo not shown) [Example 169, 4-((4-(5-chloro-3-methyl-2-(morpholin-2-ylmethyl)phenyl)thieno[3,2-d]pyrimidin-6-yl)methyl)morpholine-3,5-dione]",< 10
2,"Cc1cc(Cl)cc(-c2ncnc3cc(CN4C(=O)C5CCC5C4=O)sc23)c1CC1CNCCO1 (stereo not shown) [Example 170, 3-((4-(5-chloro-3-methyl-2-(morpholin-2-ylmethyl)phenyl)thieno[3,2-d]pyrimidin-6-yl)methyl)-3-azabicyclo[3.2.0]heptane-2,4-dione]",< 10
3,"Cc1cc(Cl)cc(-c2ncnc3cc(CN4C(=O)CSC4=O)sc23)c1CC1CNCCO1 (stereo not shown) [Example 171, 3-((4-(5-chloro-3-methyl-2-(morpholin-2-ylmethyl)phenyl)thieno[3,2-d]pyrimidin-6-yl)methyl)thiazolidine-2,4-dione]",< 10
4,"Cc1cc(Cl)cc(-c2ncnc3cc(CN4CCOCC4=O)sc23)c1CC1CNCCO1 (stereo not shown) [Example 172, 4-((4-(5-chloro-3-methyl-2-(morpholin-2-ylmethyl)phenyl)thieno[3,2-d]pyrimidin-6-yl)methyl)morpholin-3-one]",> 100
5,"Cc1cc(Cl)cc(-c2ncnc3ccsc23)c1CC1CNCCO1 (stereo not shown) [Example 173, 2-(4-chloro-2-methyl-6-(thieno[3,2-d]pyrimidin-4-yl)benzyl)morpholine]",> 100
6,"Cc1cc(Cl)cc(-c2ncnc3cc(CN4CCCC4=O)sc23)c1CC1CNCCO1 (stereo not shown) [Example 174, 1-((4-(5-chloro-3-methyl-2-(morpholin-2-ylmethyl)phenyl)thieno[3,2-d]pyrimidin-6-yl)methyl)pyrrolidin-2-one]",> 100
7,"Cc1cc(Cl)cc(-c2ncnc3cc(CN4CCCCC4=O)sc23)c1CC1CNCCO1 (stereo not shown) [Example 175, 1-((4-(5-chloro-3-methyl-2-(morpholin-2-ylmethyl)phenyl)thieno[3,2-d]pyrimidin-6-yl)methyl)piperidin-2-one]",> 100
8,"Cc1cc(Cl)cc(-c2ncnc3cc(CN4C(=O)CN(CC(F)(F)F)C4=O)sc23)c1CC1CNCCO1 (stereo not shown) [Example 176, 3-((4-(5-chloro-3-methyl-2-(morpholin-2-ylmethyl)phenyl)thieno[3,2-d]pyrimidin-6-yl)methyl)-1-(2,2,2-trifluoroethyl)imidazolidine-2,4-dione]",< 10
9,"Cc1cc(Cl)cc(-c2ncnc3cc(CN4C(=O)CN(C)C4=O)sc23)c1CC1CNCCO1 (stereo not shown) [Example 177, 3-((4-(5-chloro-3-methyl-2-(morpholin-2-ylmethyl)phenyl)thieno[3,2-d]pyrimidin-6-yl)methyl)-1-methylimidazolidine-2,4-dione]",< 10
10,"Cc1cc(Cl)cc(-c2ncnc3cc(CN4C(=O)COC4=O)sc23)c1CC1CNCCO1 (stereo not shown) [Example 178, 3-((4-(5-chloro-3-methyl-2-(morpholin-2-ylmethyl)phenyl)thieno[3,2-d]pyrimidin-6-yl)methyl)oxazolidine-2,4-dione]",< 10
11,"Cc1cc(Cl)cc(-c2ncnc3cc(CN4C(=O)c5ccccc5C4=O)sc23)c1CC1CNCCO1 (stereo not shown) [Example 179, 2-((4-(5-chloro-3-methyl-2-(morpholin-2-ylmethyl)phenyl)thieno[3,2-d]pyrimidin-6-yl)methyl)isoindoline-1,3-dione]",< 10
12,"Cc1cc(Cl)cc(-c2ncnc3cc(CN4C(=O)C5CCC5C4=O)sc23)c1CC1CNCC(C)(C)O1 (stereo not shown) [Example 180, 3-((4-(5-chloro-2-((6,6-dimethylmorpholin-2-yl)methyl)-3-methylphenyl)thieno[3,2-d]pyrimidin-6-yl)methyl)-3-azabicyclo[3.2.0]heptane-2,4-dione]",< 10
13,"Cc1cc(Cl)cc(-c2ncnc3cc(CN4C(=O)C5CC5C4=O)sc23)c1C[C@H]1CNCCO1 (stereo partly drawn) [Example 181, 3-((4-(5-chloro-3-methyl-2-(((S)-morpholin-2-yl)methyl)phenyl)thieno[3,2-d]pyrimidin-6-yl)methyl)-3-azabicyclo[3.1.0]hexane-2,4-dione]",10 to 100
